“Also recorded” adds a separate entry of the source.
Legend:
liver cell = assay: Liver cell proliferation after griseofulvin in chow; conditions: C57BL/6 mice, below the no observable effect level, 5 days
Method: (§1) Cell proliferation and collagen synthesis (turnover) were also assessed concurrently (i.e., simultaneously) in mice (C57BL/6 and Balb/c) fed griseofulvin. Griseofulvin is recognized as a hepatotoxin, inducing cell proliferation and porphyria. Mice were administered griseofulvin in their chow (1% w/w) for 5 days.

liver collagen = assay: Liver collagen synthesis (turnover) after griseofulvin in chow; format: in vivo, mouse; conditions: C57BL/6 mice, doses tested, 5 days (data not shown)
Method: as §1

mouse bone marrow cells = assay: Bone marrow cell proliferation in nude mice, paclitaxel; format: in vivo; conditions: SW1573, increasing doses, 2H2O labeling 24 hours
Method: (§2) Nude mice were implanted with human SW1573 lung cancer cells (5×10^6 cells/animal), injected with varying doses of paclitaxel, and labeled with ^2H2O for 24 hours. Both vehicle (1:1 [v/v] solution of ethanol:cremephor EL) and paclitaxel stock (dissolved in 1:1 v/v solution of ethanol:cremephor EL) were diluted 1:6, prior to injection into animals, with sterile 0.1 M Phosphate Buffered Saline (PBS). Tumor cells and bone marrow cells were removed using techniques well known in the art and as described, supra.
(§3) Colonocytes were removed as follows: The colon was removed from animals and washed with 0.1 M Phosphate Buffered Saline (PBS), cut open, and incubated in PBS containing collagenase type2 (72 mg/mL) and DNase (10 μg/mL) at 37° C., gently shaken for 40 minutes. After incubation, tissue was gently scraped and cells were collected by centrifugation at 800×g for 5 minutes at 4° C. The pellet was homogenously suspended in 45% percoll in 1.6% JMEM medium. The suspension was applied on top of a 5 mL cushion of 45% (v/v) percoll in a 75% percoll gradient and centrifuged at 350×g for 30 minutes at room temperature. Colonocytes were collected and washed twice with PBS. Debris was then separated from the cell suspension using a […] filter. […] FIG. 11 depicts the results.

[1] = test system: mouse colon cells (colonocytes); assay: Colonocyte proliferation in nude mice, paclitaxel; format: in vivo; conditions: SW1573, increasing doses, 2H2O labeling 24 hours
Method: as §2, §3

[2] = test system: human SW1573 lung cancer cells; assay: Tumor cell proliferation in nude mice with SW1573 cells, paclitaxel; format: in vivo; conditions: increasing doses, 2H2O labeling 24 hours
Method: as §2, §3

| SMILES | liver cell proliferation, lowest dose / levels below the NOEL (liver cell) | liver collagen synthesis (collagen turnover) (liver collagen) | bone marrow cell proliferation relative to vehicle controls (mouse bone marrow cells) | colonocyte proliferation relative to vehicle controls [1] | tumor cell proliferation relative to vehicle controls [2] |
| --- | --- | --- | --- | --- | --- |
| COC1=CC(=O)C[C@@H](C)[C@]12Oc1c(Cl)c(OC)cc(OC)c1C2=O [griseofulvin] | pronounced effects and dose responsiveness; also recorded: observable effect | no increase; also recorded: no effect | – | – | – |
| CC(=O)O[C@H]1C(=O)[C@@]2(C)[C@H]([C@H](OC(=O)c3ccccc3)[C@]3(O)C[C@H](OC(=O)[C@H](O)[C@@H](NC(=O)c4ccccc4)c4ccccc4)C(C)=C1C3(C)C)[C@]1(OC(C)=O)CO[C@@H]1C[C@@H]2O [paclitaxel] | – | – | little or no effect | inhibitory effect, in a dose-dependent manner; also recorded: inhibited, in a dose-dependent manner | inhibitory effect, in a dose-dependent manner; also recorded: inhibited, in a dose-dependent manner |

From US7357913B2, “Methods for detecting, prognosing, or monitoring a disorder by comparing relative flux rates of two or more biological molecules in vivo” (The Regents of the University of California, priority 2003, dated 2008)
